Here are results for 1 compound from patent US20240350392A1, “COMPOSITION WITH BIOLOGICALLY ACTIVE AGENT” (THE BOOTS COMPANY PLC, priority 2021, published 2024).

Residues, ends and D or L forms follow the SMILES beside them. *: point of attachment. Palmitoyl = CCCCCCCCCCCCCCCC(=O)*

The series can be described thus: Franz cell ex vivo skin explant penetration with 3D OrbiSIMS analysis. Type of series: in vitro ADME, human. The settings on record: after 1 hour in Franz cell; formulation with glycerin+methyl gluceth-20 versus glycerin only (FIG. 1). As to the method: For ex vivo analysis, full thickness human skin tissue was removed during cosmetic surgery from Caucasian female donors (aged 35-70). The explant was frozen immediately post-surgery, shipped and stored at −20° C. prior to use.
The tissue was then defrosted, cut and mounted, dermal side down, in a Franz-type static diffusion cell set-up (Franz, 1975), with an exposed surface area of 1.1 cm^2. Infinite doses of the cosmetic formulations were applied to the donor chamber, with the explant exposed to the formulations for 1 hour in a water bath set to 36.5° C. Sink conditions were maintained throughout the experiments.
After 1 hour, the Franz cell was dismantled, excess formulation was removed with a dry sponge and the skin explant was wiped with a sponge soaked in Teepol Solution (3% v/v). Next, the explant was dehydrated under vacuum at room temperature for 24 hours before 3D OrbiSIMS analysis 3D OrbiSIMS Analysis […]
A 20 KeV Ar 3000^+ analysis beam with a diameter of 20 μm was used as the primary ion source. Samples were analysed at ambient temperature across a 400×400 μm area in positive polarity with sawtooth raster mode and a total crater size of 486×486 μm. […] Mass spectra were recorded at a resolution of 240,000 at m/z 200 in the mass range of 75 to 1,125 m/z. […]

For the compound `CCCCCCCCCCCCCCCC(=O)NCC(=O)N[C@@H](Cc1c[nH]cn1)C(=O)N[C@@H](CCCCN)C(=O)O` [Pal-GHK, N-Palmitoyl-Gly-His-Lys] (Palmitoyl-Gly-His-Lys-OH; C-terminus assumed), the “Pal-GHK peptide ion intensity in skin explant” value is “more peptide ion present”.
